Converted amounts (≈) assume the structure as drawn.
Tested on: Spodoptera littoralis larvae (2nd and 4th instars)
Assay: Insecticidal bioassay screening (castor leaf dip)
Assay type: in vivo
Conditions: for LC50 (ppm): after 72 h of treatment; for Toxic ratio: 72 h, fenoxycarb's LC50 / the compound's LC50 × 100
Method: Five concentrations (200, 100, 50, 25, 12.5 ppm) were designed for this synthetic compound and the reference fenoxycarb compound as the dynamic ingredients based on ppm via diluting the commercial formulation.
In this experiment, castor leaves are immersed in each of the previously prepared concentrations of the components for 10 seconds and then left to dry for 60 minutes. Larvae of the second and fourth instars of each checked strain are prepared with treated leaves in gauze-covered glass containers for 72 hrs. An untreated control is made in which leaves are dipped in triton x-100 and distilled water only. Then the preserved leaves were removed & fresh, untreated leaves were provided for 72 hours. Three replicates (10 larvae each) were checked for each concentration. Daily inspection was carried out for all treatments and mortality percentages were recorded 3 days (72 hours) after treatment. The average mortality percentage was corrected employing Abbott's formula. The corrected mortality rate for each of the previously synthesized compounds is statistically calculated according to Finney (1970). Through this rate, the corresponding concentration test lines (LDP lines) are assessed. Fifty and ninety percent mortality are determined, and the regression values for the checked products were previously evaluated.

## CCOC(=O)NCCOc1ccc(Oc2ccccc2)cc1 [Fenoxycarb, reference compound]
2nd instar larvae of S. littoralis
  LC50 (ppm): 2.73 ppm
2nd instar larvae
  Toxic ratio: 100
4th instar larvae of S. littoralis
  LC50 (ppm): 43.231 ppm
4th instar larvae
  Toxic ratio: 100
Spodoptera littoralis, foliar
  LC50: 2.73 µg/mL (≈ 9.06 µM)
